In data set [1] the target is specific binding sites of dizocilpine ([3H]-MK801) in the rat cortex. The experiment in a line: 3H-MK801 (dizocilpine) binding test: inhibition of the binding of dizocilpine to the specific binding sites in rat cortex. To be noted: 50 percent inhibition of specific binding of dizocilpine. The procedure: The pharmacological activity of some compounds in accordance with the invention and of rac-cis-4b-(2-amino-ethyl)4b,5,6,7,8,8a,9,10-octahydro-phenanthren-8a-ol was determined in vitro according to the method described in Europ. J. Pharmacol. 135, 261 (1987). According to this method [namely the 3H-MK801 (dizocilpine) binding test] the inhibition of the binding of dizocilpine to the specific binding sites in rat cortex by the respective test substances is determined. The IC50 ("50% inhibiting concentration") is that concentration of the respective test substance which brings about a 50 percent inhibition of the specific binding of dizocilpine to the specific binding sites in the rat cortex.
(§1) The thus-determined activity of some compounds in accordance with the invention will be evident from the IC50 values set forth in the following Table; moreover, the Table contains data concerning their toxicity (lowest lethal dosage=LLD in the mouse, p.o.).

A further data set relates to mouse. As to the kind of experiment: Toxicity (lowest lethal dosage, LLD) in the mouse, p.o. Type of data set: in vivo.
From the text: as §1

The values below come from patent publication US5385947A, “Octahydrophenanthrene derivatives” (Hoffmann-La Roche Inc., priority 1993, dated 1995).

Structures can show the parent of a compound that is named as a salt.

In general, IC50 refers to the concentration that gives 50% inhibition. Read a low IC50 as inhibition by little substance. `Cl.NCC[C@@]12CCCC[C@]1(O)CCc1c(F)cc(Cl)cc12` (racemic) [rac-cis-4b-(2-Amino-ethyl)-3-chloro-1-fluoro-4b,5,6,7,8,8a,9,10-octahydro-phenanthren-8a-ol hydrochloride] returned an IC50 in data set [1] of 107 nM. Further, in the data set on mouse, the “Toxicity LLD (lowest lethal dosage)” value came to 1000 mg/kg.
The corresponding values for `Cl.NCC[C@@]12CCCC[C@]1(O)CCc1ccc(Cl)cc12` (racemic) [rac-cis-4b-(2-Amino-ethyl)-3-chloro-4b,5,6,7,8,8a,9,10-octahydro-phenanthren-8a-ol hydrochloride] are 84.7 nM and 500 mg/kg.
On the same counts, the results for `Cl.NCC[C@@]12CCCC[C@]1(O)CCc1ccccc12` (racemic) [rac-cis-4b-(2-Amino-ethyl)-4b,5,6,7,8,8a,9,10-octahydro-phenanthren-8a-ol hydrochloride] are 93 nM and 250 mg/kg.
On the same counts, the results for `Cl.NCC[C@@]12CCCC[C@]1(O)CCc1ccc(O)cc12` (racemic) [rac-cis-4b-(2-Amino-ethyl)-4b,5,6,7,8,8a,9,10-octahydro-phenanthrene-3,8a-diol hydrochloride] are 73.4 nM and 1000 mg/kg.
In the case of `CN(C)CC[C@@]12CCCC[C@]1(O)CCc1ccccc12` (racemic) [rac-cis-4b-(2-Dimethylamino-ethyl)-4b,5,6,7,8,8a,9,10-octahydro-phenanthren-8a-ol hydrochloride], the 50% inhibitory concentration (IC50) in data set [1] was 453 nM.
Compound `CN(C)CC[C@@]12CCCC[C@]1(O)CCc1ccc(Cl)cc12.Cl` (single isomer, unassigned) [(-)-cis-3-Chloro-4b-(2-dimethylamino-ethyl)-4b,5,6,7,8,8a,9,10-octahydro-phenanthren-8a-ol hydrochloride] registered a 50% inhibitory concentration (IC50) in data set [1] of 254 nM. Further, the “Toxicity LLD (lowest lethal dosage)” value with mouse amounted to 375 mg/kg.
